From PubChem BioAssay (NCI)
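Exposure lasted 48 hours, with cells grown in 96-well plates and compounds tested at five concentrations. At the TGI there is no net growth.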 Where a SMILES comes first, the peptide text is derived from it. Bridges are numbered along the chain shown (N, C = ends). [ ]: non-standard residue; d: D form. The star is where a group is joined. Phe(4-NO2) = N[CH](Cc1ccc([N+](=O)[O-])cc1)C(=O)O; Cbz = O=C(OCc1ccccc1)*; PhAc = O=C(Cc1ccccc1)*

Key:
Assay in all cases: DTP human tumour cell line panel, 48 h
OVCAR-5 ovarian = tested on: OVCAR-5 ovarian
OVCAR-4 ovarian = tested on: OVCAR-4 ovarian
SNB-78 CNS = tested on: SNB-78 CNS
LXFL 529 NSCLC = tested on: LXFL 529 NSCLC
HOP-18 NSCLC = tested on: HOP-18 NSCLC
DMS 114 small cell lung = tested on: DMS 114 small cell lung
DLD-1 colon = tested on: DLD-1 colon
KM20L2 colon = tested on: KM20L2 colon
DMS 273 small cell lung = tested on: DMS 273 small cell lung
M19-MEL melanoma = tested on: M19-MEL melanoma

COc1ccc(N=Nc2c(C)c(C#N)c(=S)n(C3OC(COC(C)=O)C(OC(C)=O)C(OC(C)=O)C3OC(C)=O)c2C)cc1 (centres undefined)
TGI (OVCAR-5 ovarian): > 100 µM
TGI (OVCAR-4 ovarian): > 100 µM

CC1=CC=C2c3ccccc3C=CN2C(=O)C1
TGI (OVCAR-5 ovarian): > 100 µM
TGI (OVCAR-4 ovarian): > 100 µM

Cc1cc(S(=O)(=O)NC(=C(C#N)C#N)[n+]2ccc(N(C)C)cc2)c([S-])cc1Cl
TGI (OVCAR-5 ovarian): > 100 µM
TGI (OVCAR-4 ovarian): > 100 µM

CCOC(=O)CCC(NC(=O)OCc1ccccc1)C(=O)NC(CCC(=O)OCC)C(=O)NC(Cc1ccc([N+](=O)[O-])cc1)C(=O)NC(CCC(=O)OCC)C(=O)NC(CCC(=O)OCC)C(=O)OCC (centres undefined) (Cbz-E(OEt)E(OEt)[Phe(4-NO2)]E(OEt)E(OEt)-OEt; configuration not given here)
TGI (OVCAR-5 ovarian): > 100 µM
TGI (OVCAR-4 ovarian): > 100 µM

O=C(Cc1ccccc1)N[C@@H]1COC(=O)[C@@H]2CCCN2C(=O)[C@@H]2CCCN2C1=O (PhAc-[dS]-Pro-Pro; ester 1-C)
TGI (OVCAR-5 ovarian): > 100 µM
TGI (OVCAR-4 ovarian): > 100 µM

CC1C(=NO)C(C)C(c2ccccc2)N(N=O)C1c1ccccc1 (centres undefined)
TGI (OVCAR-4 ovarian): 54.4 µM

COc1ccc2c(c1)CCN=C2Cc1ccccc1CCCl
TGI (OVCAR-5 ovarian): > 100 µM
TGI (OVCAR-4 ovarian): > 100 µM

c1ccc(N=C(N2CCOCC2)N(CCN2CCOCC2)c2ccccc2)cc1
TGI (OVCAR-4 ovarian): > 100 µM

CN(C)C(=S)N1C(=S)N(c2ccccc2)C(=Nc2ccccc2)C1=Nc1ccccc1
TGI (OVCAR-5 ovarian): > 100 µM
TGI (OVCAR-4 ovarian): > 100 µM

CC1(C)C=Cc2c(cc3oc4ccc5c(c4c(=O)c3c2O)C=CC(C)(C)O5)O1
TGI (OVCAR-5 ovarian): > 100 µM
TGI (OVCAR-4 ovarian): > 100 µM

CCCCCN1CCN(c2ncccn2)CC1
TGI (OVCAR-5 ovarian): > 100 µM
TGI (OVCAR-4 ovarian): > 100 µM

CC(C)(C)N1C(=O)c2ccccc2C1(O)C(F)(F)F (centres undefined)
TGI (OVCAR-5 ovarian): > 100 µM
TGI (OVCAR-4 ovarian): > 100 µM

CCN1C(=S)n2cccc2C1CC(=O)c1ccc(Cl)cc1 (centres undefined)
TGI (OVCAR-5 ovarian): > 100 µM
TGI (OVCAR-4 ovarian): > 100 µM

CC(C)(C)OC(=O)[C@@H]1CCC(=S)N1Cc1ccccc1
TGI (OVCAR-5 ovarian): > 100 µM
TGI (OVCAR-4 ovarian): > 100 µM

O=C1Oc2ccccc2C(=O)/C1=C/N1C(=O)/C(=C/c2ccc3c(c2)OCO3)SC1=S
TGI (OVCAR-5 ovarian): 30.2 µM
TGI (OVCAR-4 ovarian): 47.9 µM

Cc1nnc2sc(Cl)nn12
TGI (OVCAR-5 ovarian): 44.5 µM
TGI (OVCAR-4 ovarian): 34.3 µM

COc1cc(C2SCC(=O)N2Cc2ccccc2)cc(OC)c1OC (centres undefined)
TGI (OVCAR-5 ovarian): > 100 µM
TGI (OVCAR-4 ovarian): > 100 µM

COC(=O)C(Cc1ccccc1)NC(=O)C(CCC(=O)OCc1ccccc1)NC(=O)OC(C)(C)C (centres undefined)
TGI (OVCAR-5 ovarian): > 100 µM
TGI (OVCAR-4 ovarian): > 100 µM

N=c1oc2c(Br)cc(Br)cc2cc1C(=O)Nc1ccccn1
TGI (OVCAR-5 ovarian): > 100 µM
TGI (OVCAR-4 ovarian): > 100 µM

C=CCc1c(C)nc(C)nc1N/N=C/C=C/c1ccccc1
TGI (OVCAR-5 ovarian): > 100 µM
TGI (OVCAR-4 ovarian): 0.18 µM

O=C1OC2C(O)COC2(O)C1(O)C(C[N+](=O)[O-])c1ccc(Cl)cc1 (centres undefined)
TGI (SNB-78 CNS): 71.6 µM
TGI (LXFL 529 NSCLC): 4.07 µM
TGI (HOP-18 NSCLC): 21.6 µM
TGI (DMS 114 small cell lung): 9.99 µM
TGI (DLD-1 colon): 3.93 µM
TGI (KM20L2 colon): 6.17 µM
TGI (DMS 273 small cell lung): 9.87 µM
TGI (OVCAR-5 ovarian): 32.6 µM
TGI (M19-MEL melanoma): 6.84 µM
TGI (OVCAR-4 ovarian): 19.4 µM

Cc1n[n+](CC(=O)c2ccccc2)c2sc(N)nn12
TGI (OVCAR-5 ovarian): > 100 µM
TGI (OVCAR-4 ovarian): > 100 µM

O=c1[nH]c(=O)n(C2OC(CO)C(O)C2O)c2ncc(-c3ccc(-c4ccccc4)cc3)nc12 (centres undefined)
TGI (OVCAR-5 ovarian): > 20 µM
TGI (OVCAR-4 ovarian): > 20 µM

CC1(C)C(C#N)=[N+]([O-])C(C)(C)N1O
TGI (OVCAR-5 ovarian): > 100 µM
TGI (OVCAR-4 ovarian): > 100 µM

Cc1ccccc1N=CN(C)C
TGI (OVCAR-5 ovarian): > 100 µM
TGI (OVCAR-4 ovarian): > 100 µM

CCOC(=O)N1CC2(C)C=CC1C(C(=O)OC)C2 (centres undefined)
TGI (OVCAR-5 ovarian): > 100 µM
TGI (OVCAR-4 ovarian): > 100 µM

C=CC(CBr)CCC(Br)C(C)(C)Br (centres undefined)
TGI (OVCAR-5 ovarian): > 10 µM
TGI (OVCAR-4 ovarian): > 10 µM

Cn1c2c(c3ccccc31)CCN1OCC=C[C@@H](C(=O)O)[C@@H]21
TGI (OVCAR-5 ovarian): > 100 µM
TGI (OVCAR-4 ovarian): > 100 µM

CCSC1=N/C(=C\c2ccco2)C(NN)=N1
TGI (OVCAR-5 ovarian): > 50 µM

CCOC(=O)CC(=O)C(=O)NNC1=NCCN1
TGI (OVCAR-5 ovarian): > 100 µM
TGI (OVCAR-4 ovarian): > 100 µM

NC(=O)NC(=O)CCC(NS(=O)(=O)c1ccccc1)C(=O)NC(N)=O (centres undefined)
TGI (OVCAR-5 ovarian): > 100 µM
TGI (OVCAR-4 ovarian): > 100 µM

CC(C)/C(Cl)=N/OC(=O)Nc1cccc(C(F)(F)F)c1
TGI (OVCAR-5 ovarian): 34 µM
TGI (OVCAR-4 ovarian): 16.6 µM

Cc1ccc(/C=N/Nc2nc3ccccc3s2)s1
TGI (OVCAR-5 ovarian): > 100 µM
TGI (OVCAR-4 ovarian): > 100 µM

CC(C)(Br)C(Br)CCC(=CCBr)CBr (mixture of isomers)
TGI (SNB-78 CNS): 17.1 µM
TGI (LXFL 529 NSCLC): 11.6 µM
TGI (HOP-18 NSCLC): 31.9 µM
TGI (DLD-1 colon): 11.2 µM
TGI (DMS 273 small cell lung): 3.51 µM
TGI (OVCAR-5 ovarian): 37.2 µM
TGI (M19-MEL melanoma): 4.2 µM
TGI (OVCAR-4 ovarian): 17 µM

Cc1ccc2nc(N/N=C/c3ccc(C)s3)cc(C)c2c1
TGI (OVCAR-5 ovarian): 22 µM
TGI (OVCAR-4 ovarian): 24.2 µM

O=C1c2sc(-c3ccc(F)cc3)cc2-n2cccc21
TGI (OVCAR-5 ovarian): > 100 µM
TGI (OVCAR-4 ovarian): > 100 µM

CCN1CCN(c2nc3ccccc3nc2C(=O)c2ccc(OC)cc2)CC1
TGI (OVCAR-5 ovarian): > 100 µM
TGI (OVCAR-4 ovarian): > 100 µM

CC(=O)OCc1ccc2oc(=O)c(C(=O)Oc3cccc(Cl)c3)cc2c1
TGI (OVCAR-5 ovarian): > 100 µM
TGI (OVCAR-4 ovarian): > 100 µM

Cc1ccc2c3c(cnc2n1)C(=O)OCCN3C
TGI (OVCAR-5 ovarian): > 100 µM
TGI (OVCAR-4 ovarian): > 100 µM
